# Results as given in ChEMBL document CHEMBL1201861, “Genomics of Drug Sensitity in Cancer screening data, Wellcome Trust Sanger Institute”.
# Tests used:
# Test in all cases: cells
# 23132-87 = assay type: functional, cell-based, Homo sapiens; conditions: Homo sapiens
# Description: SANGER: Inhibition of human 23132-87 cell growth in a cell viability assay.
# OC-314 = assay type: functional, cell-based; conditions: Homo sapiens
# Description: SANGER: Inhibition of human OC-314 cell growth in a cell viability assay.
# SW900 = assay type: functional, cell-based; conditions: Homo sapiens;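 further: IC50 is the concentration that inhibits SW900 cell growth, measured by a cell viability assay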
# Description: SANGER: Inhibition of human SW900 cell growth in a cell viability assay.
# ZR-75-30 = assay type: functional, cell-based; conditions: Homo sapiens;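 further: growth inhibition of ZR-75-30 cells, measured with a cell viability readout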
# Description: SANGER: Inhibition of human ZR-75-30 cell growth in a cell viability assay.
# NCI-H1703 = assay type: functional, cell-based, Homo sapiens; conditions: Homo sapiens, NCI-H1703;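 further: growth inhibition of NCI-H1703 cells, read out via a cell viability assay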
# Description: SANGER: Inhibition of human NCI-H1703 cell growth in a cell viability assay.
# ECC10 = assay type: functional, cell-based; conditions: Homo sapiens;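 further: growth inhibition of ECC10 cells, read out by a cell viability assay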
# Description: SANGER: Inhibition of human ECC10 cell growth in a cell viability assay.
# NCI-H1573 = assay type: functional, cell-based; conditions: Homo sapiens;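 further: growth inhibition of NCI-H1573 cells, read out with a cell viability assay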
# Description: SANGER: Inhibition of human NCI-H1573 cell growth in a cell viability assay.
# SW 1116 = assay type: functional, cell-based; conditions: Homo sapiens;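 further: growth inhibition of SW1116 cells, read out with a cell viability assay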
# Description: SANGER: Inhibition of human SW1116 cell growth in a cell viability assay.
# TGBC11TKB = assay type: functional, cell-based; conditions: Homo sapiens;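 further: growth inhibition of human TGBC11TKB cells, measured by a cell viability assay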
# Description: SANGER: Inhibition of human TGBC11TKB cell growth in a cell viability assay.
# BT-549 = assay type: functional, cell-based; conditions: Homo sapiens
# Description: SANGER: Inhibition of human BT-549 cell growth in a cell viability assay.
# EPLC-272H = assay type: functional, cell-based; conditions: Homo sapiens
# Description: SANGER: Inhibition of human EPLC-272H cell growth in a cell viability assay.
# YH-13 = assay type: functional, cell-based; conditions: Homo sapiens;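 further: cell viability readout of growth suppression in the human YH-13 cell line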
# Description: SANGER: Inhibition of human YH-13 cell growth in a cell viability assay.
# TI-73 = assay type: functional, cell-based; conditions: Homo sapiens;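 further: cell viability assay measuring how much compounds suppress growth of the cultured cell line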
# Description: SANGER: Inhibition of human TI-73 cell growth in a cell viability assay.
# D-423MG = assay type: functional, cell-based; conditions: Homo sapiens
# Description: SANGER: Inhibition of human D-423MG cell growth in a cell viability assay.
# BALL-1 = assay type: functional, cell-based; conditions: Homo sapiens;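 further: growth inhibition of BALL-1 cells, read out with a cell viability assay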
# Description: SANGER: Inhibition of human BALL-1 cell growth in a cell viability assay.
# MOLT-13 = assay type: functional, cell-based; conditions: Homo sapiens;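 further: IC50 for suppression of MOLT-13 cell growth, read out with a cell viability assay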
# Description: SANGER: Inhibition of human MOLT-13 cell growth in a cell viability assay.
# NCI-H2009 = assay type: functional, cell-based, Homo sapiens; conditions: Homo sapiens, NCI-H2009;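 further: cell viability assay measuring inhibition of NCI-H2009 cell growth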
# Description: SANGER: Inhibition of human NCI-H2009 cell growth in a cell viability assay.
# SNU-423 = assay type: functional, cell-based, Homo sapiens; conditions: Homo sapiens, SNU-423
# Description: SANGER: Inhibition of human SNU-423 cell growth in a cell viability assay.
# MEL-JUSO = assay type: functional, cell-based, Homo sapiens; conditions: Homo sapiens, MEL-JUSO;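 further: growth inhibition of human MEL-JUSO cells, read out with a cell viability assay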
# Description: SANGER: Inhibition of human MEL-JUSO cell growth in a cell viability assay.
# HSC-4 = assay type: functional, cell-based, Homo sapiens; conditions: Homo sapiens, HSC-4;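 further: growth inhibition of human HSC-4 cells, read out with a cell viability assay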
# Description: SANGER: Inhibition of human HSC-4 cell growth in a cell viability assay.
Structure (SMILES),IC50 (23132-87) [nM],IC50 (OC-314) [nM],IC50 (SW900) [nM],IC50 (ZR-75-30) [nM],IC50 (NCI-H1703) [nM],IC50 (ECC10) [nM],IC50 (NCI-H1573) [nM],IC50 (SW 1116) [nM],IC50 (TGBC11TKB) [nM],IC50 (BT-549) [nM],IC50 (EPLC-272H) [nM],IC50 (YH-13) [nM],IC50 (TI-73) [nM],IC50 (D-423MG) [nM],IC50 (BALL-1) [nM],IC50 (MOLT-13) [nM],IC50 (NCI-H2009) [nM],IC50 (SNU-423) [nM],IC50 (MEL-JUSO) [nM],IC50 (HSC-4) [nM]
CCOc1nc(NC(=O)Cc2cc(OC)ccc2OC)cc(N)c1C#N,> 10000,> 10000,> 10000,> 10000,> 10000,> 10000,> 10000,> 10000,> 10000,> 10000,> 10000,> 10000,> 10000,> 10000,> 10000,> 10000,> 10000,> 10000,> 10000,–
CC(=O)O[C@@H]1[C@@H](OC(C)=O)[C@@H](O)[C@H](Oc2c(-c3ccc(O)cc3)oc3cc(O)cc(O)c3c2=O)O[C@H]1C,> 10000,> 10000,> 10000,> 10000,> 10000,> 10000,> 10000,> 10000,> 10000,> 10000,> 10000,> 10000,> 10000,> 10000,> 10000,> 10000,> 10000,–,> 10000,–
CN(C)C/C=C/C(=O)Nc1cc2c(Nc3ccc(F)c(Cl)c3)ncnc2cc1O[C@H]1CCOC1 [AFATINIB],319,> 500,> 500,95.5,> 500,> 500,> 500,> 500,> 500,> 500,> 500,> 500,147,> 500,> 500,240,> 500,> 500,> 500,17.5
COc1ccc(-c2ccc3c(N4CCOC[C@@H]4C)nc(N4CCOC[C@@H]4C)nc3n2)cc1CO [AZD-8055],–,1300,1750,> 2000,–,350,902,> 2000,> 2000,> 2000,431,549,457,1030,> 2000,665,–,814,–,–
O=C(NOCC1CC1)c1ccc(F)c(F)c1Nc1ccc(I)cc1Cl [CI-1040],5170,> 10000,> 10000,> 10000,> 10000,8030,> 10000,1560,> 10000,> 10000,5000,> 10000,> 10000,3080,> 10000,5070,> 10000,–,5740,244
Nc1ccn([C@@H]2O[C@H](CO)[C@@H](O)[C@@H]2O)c(=O)n1 [CYTARABINE],319,399,1620,> 2000,49.8,> 2000,> 2000,> 2000,1730,531,1450,328,613,299,> 2000,> 2000,> 2000,881,85.8,467
COc1ccc(C2=N[C@@H](c3ccc(Cl)cc3)[C@@H](c3ccc(Cl)cc3)N2C(=O)N2CCNC(=O)C2)c(OC(C)C)c1 [NUTLIN-3],–,> 8000,> 8000,> 8000,–,> 8000,> 8000,> 8000,> 8000,> 8000,> 8000,> 8000,> 8000,> 8000,> 8000,> 8000,–,> 8000,–,–
C=CCNC1=C2C[C@@H](C)C[C@H](OC)[C@H](O)[C@@H](C)/C=C(\C)[C@H](OC(N)=O)[C@@H](OC)/C=C\C=C(/C)C(=O)NC(=CC1=O)C2=O [TANESPIMYCIN],69.5,167,> 1000,> 1000,414,> 1000,456,> 1000,109,118,62,57.2,18,> 1000,> 1000,> 1000,853,> 1000,44.7,–
